Test results: US20260053811A1, “METHODS OF TREATING HYPERTENSION IN OBESE SUBJECTS” (Mineralys Therapeutics, Inc., priority 2022, published 2026)

Test system: hypertensive subjects
Test: Seated automated office blood pressure (AOBP) in randomized, placebo-controlled, dose-ranging study
Type: in vivo, human
Settings: Part 1
Description: A randomized, double-blinded, placebo-controlled, dose-ranging, multicenter study was conducted to evaluate the effect of orally administered Compound A HBr on blood pressure for the treatment of hypertension in male and female subjects ≥18 years of age.
The study consists of two parts. For enrollment into Part 1 of the study, a subject's value of plasma renin activity (PRA) must be ≤1 ng/mL/h based on morning measurement. If the value of PRA >1 ng/mL/h based on morning measurement, then subjects may be eligible to enter Part 2 of the study.
For Part 1, 163 enrolled subjects ≥18 years of age were randomized into 6 equal treatment groups (1:1:1:1:1:1) to 12.5 mg BID, 25 mg BID, 12.5 mg QD, 50 mg QD, 100 mg QD, or placebo. After a review of interim clinical data, the 2 lowest dose levels (12.5 mg QD and 12.5 mg BID) were stopped for future randomization due to a lack of consistent meaningful reduction of blood pressure, but the patients randomized to that point remained in the study through completion. Thus, after the review of interim clinical data, subjects were randomized into 4 equal treatment groups (1:1:1:1) to 25 mg BID, 50 mg QD, 100 mg QD, or placebo.
For Part 2, 36 enrolled subjects ≥18 years of age were randomized (5:1) to either 100 mg QD Compound A HBr or placebo such that the Compound A HBr treatment group consisted of approximately 30 subjects and the placebo treatment group will consist of approximately 6 subjects.
Subjects orally administered the assigned study drug (Compound A HBr or placebo) according to the assigned dosing regimen for 8 weeks beginning on Study Day 1. All subjects in Part 1 (regardless of dosing group) received BID dosing to preserve the integrity of the blind; active drug is administered as the morning dose for all QD dose groups. Subjects returned to the research facility or were seen by the clinical investigator or approved home health care professional at the end of Study Weeks 1, 2, 3, 4, 5, 6, 7, and 8 (±2 days) for protocol-defined efficacy and safety assessments and procedures, assessment of adverse events (AEs), and confirmation of compliance with study drug usage. Subjects also completed a telephone visit and blood pressure (BP) check at home approximately 3 days post last dose of study drug. Subjects attended up to 14 full clinic visits, including a pre-Screening visit, a Screening/start of Placebo Run-in visit, a second visit during Placebo Run-in, a clinic visit to initiate the ABPM procedure, a Randomization visit, 8 weekly visits during double-blind treatment, and an end-of-study visit scheduled 4 weeks after the last study treatment for final efficacy and safety assessments.
An automated oscillometric sphygmomanometer device was used to measure the subjects' systolic and diastolic blood pressure in office after approximately 5 minutes of rest in the seated position.
The primary endpoint is the change in office-measured (mean of last 2 of 5 unattended measurements using an automated oscillometric sphygmomanometer device after approximately 5 minutes of rest in the seated position) systolic blood pressure (SBP) from baseline to the end of Study Week 8.
Secondary endpoints of this study were: • (a) Change in 24-hour ambulatory blood pressure monitoring (ABPM) parameters (systolic and diastolic) from baseline to the end of Study Week 7. • (b) Change in office-measured SBP from baseline to the end of Study Weeks 1, 2, 3, 4, 5, 6, and 7. • (c) Change in office-measured diastolic blood pressure (DBP) from baseline to the end of Study Weeks 1, 2, 3, 4, 5, 6, 7, and 8. • (d) Proportion of subjects who achieve office-measured BP of ≤130/80 mm Hg by the end of Study Week 8.

[1] = 50 mg QD, Systolic Blood Pressure Tertile at Baseline High
[2] = 50 mg QD, Systolic Blood Pressure Tertile at Baseline Low
[3] = 50 mg QD, Systolic Blood Pressure Tertile at Baseline Middle
[4] = 50 mg QD, Thiazide Diuretic Use at Baseline No
[5] = 50 mg QD, Thiazide Diuretic Use at Baseline Yes

CC(=O)N[C@H]1CC[C@H](NC(=O)CN2CCN(c3nncc(-c4ccc(C)cc4)n3)CC2)CC1 [Compound A HBr]
Mean (SD) Change from Baseline at Week 8 in Automated Office-Measured Diastolic Blood Pressure (50 mg QD, Seated SBP Tertile Middle): −10.63 (7.25) mmHg | Mean (SD) Automated Office-Measured Diastolic Blood Pressure at Wk 8 (50 mg QD, Sex Female): 75.67 (12.10) mmHg | Mean (SD) Automated Office-Measured Systolic Blood Pressure at Wk 8 (50 mg QD, Sex Female): 125.67 (11.97) mmHg | Mean (SD) Change from Baseline at Week 8 in Automated Office-Measured Diastolic Blood Pressure (50 mg QD, Sex Female): −9.20 (10.37) mmHg | Mean (SD) Change from Baseline at Week 8 in Automated Office-Measured Systolic Blood Pressure (50 mg QD, Sex Female): −15.97 (18.44) mmHg | Mean (SD) Automated Office-Measured Diastolic Blood Pressure at Wk 8 (50 mg QD, Sex Male): 78.15 (6.52) mmHg | Mean (SD) Change from Baseline at Week 8 in Automated Office-Measured Diastolic Blood Pressure (50 mg QD, Sex Male): −6.73 (7.65) mmHg | Mean (SD) Change from Baseline at Week 8 in Automated Office-Measured Systolic Blood Pressure (50 mg QD, Sex Male): −9.96 (15.67) mmHg | Mean (SD) Automated Office-Measured Systolic Blood Pressure at Wk 8 [1]: 127.25 (17.59) mmHg | Mean (SD) Change from Baseline at Week 8 in Automated Office-Measured Systolic Blood Pressure [1]: −29.25 (14.31) mmHg | Mean (SD) Automated Office-Measured Systolic Blood Pressure at Wk 8 [2]: 130.25 (12.04) mmHg | Mean (SD) Change from Baseline at Week 8 in Automated Office-Measured Systolic Blood Pressure [2]: −2.58 (12.54) mmHg | Mean (SD) Automated Office-Measured Systolic Blood Pressure at Wk 8 [3]: 127.63 (13.35) mmHg | Mean (SD) Change from Baseline at Week 8 in Automated Office-Measured Systolic Blood Pressure [3]: −13.00 (14.05) mmHg | Automated Office-Measured Diastolic Blood Pressure, Week 8, Mean (SD) [4]: 78.00 (6.42) mmHg | Mean (SD) Automated Office-Measured Systolic Blood Pressure at Wk 8 [4]: 130.00 (13.65) mmHg | Mean (SD) Change from Baseline at Week 8 in Automated Office-Measured Diastolic Blood Pressure [4]: −4.71 (7.77) mmHg | Mean (SD) Change from Baseline at Week 8 in Automated Office-Measured Systolic Blood Pressure [4]: −7.67 (15.11) mmHg | Automated Office-Measured Diastolic Blood Pressure, Week 8, Mean (SD) [5]: 75.94 (11.89) mmHg | Mean (SD) Automated Office-Measured Systolic Blood Pressure at Wk 8 [5]: 127.63 (14.08) mmHg | Mean (SD) Change from Baseline at Week 8 in Automated Office-Measured Diastolic Blood Pressure [5]: −10.56 (9.49) mmHg | Mean (SD) Change from Baseline at Week 8 in Automated Office-Measured Systolic Blood Pressure [5]: −17.31 (17.91) mmHg | Mean (SD) Automated Office-Measured Systolic Blood Pressure at Wk 8 (100 mg QD, ACEi/ARB No): 116.80 (7.19) mmHg | Mean (SD) Change from Baseline at Week 8 in Automated Office-Measured Systolic Blood Pressure (100 mg QD, ACEi/ARB No): −23.70 (8.89) mmHg | Mean (SD) Automated Office-Measured Systolic Blood Pressure at Wk 8 (100 mg QD, ACEi/ARB Yes): 134.90 (13.12) mmHg | Mean (SD) Change from Baseline at Week 8 in Automated Office-Measured Systolic Blood Pressure (100 mg QD, ACEi/ARB Yes): −11.68 (13.23) mmHg | Mean (SD) Automated Office-Measured Diastolic Blood Pressure at Wk 8 (100 mg QD, ACEi/ARBs No): 71.40 (10.62) mmHg | Mean (SD) Change from Baseline at Week 8 in Automated Office-Measured Diastolic Blood Pressure (100 mg QD, ACEi/ARBs No): −9.00 (6.21) mmHg | Mean (SD) Automated Office-Measured Diastolic Blood Pressure at Wk 8 (100 mg QD, ACEi/ARBs Yes): 73.40 (9.37) mmHg | Mean (SD) Change from Baseline at Week 8 in Automated Office-Measured Diastolic Blood Pressure (100 mg QD, ACEi/ARBs Yes): −4.58 (8.10) mmHg | Mean (SD) Automated Office-Measured Diastolic Blood Pressure at Wk 8 (100 mg QD, AHTs 2): 74.09 (4.66) mmHg | Mean (SD) Automated Office-Measured Systolic Blood Pressure at Wk 8 (100 mg QD, AHTs 2): 124.82 (13.25) mmHg | Mean (SD) Change from Baseline at Week 8 in Automated Office-Measured Diastolic Blood Pressure (100 mg QD, AHTs 2): −8.09 (8.81) mmHg | Mean (SD) Change from Baseline at Week 8 in Automated Office-Measured Systolic Blood Pressure (100 mg QD, AHTs 2): −17.95 (15.83) mmHg | Mean (SD) Automated Office-Measured Diastolic Blood Pressure at Wk 8 (100 mg QD, AHTs ≥3): 72.14 (12.08) mmHg | Mean (SD) Automated Office-Measured Systolic Blood Pressure at Wk 8 (100 mg QD, AHTs ≥3): 136.36 (13.05) mmHg | Mean (SD) Change from Baseline at Week 8 in Automated Office-Measured Diastolic Blood Pressure (100 mg QD, AHTs ≥3): −3.39 (6.60) mmHg | Mean (SD) Change from Baseline at Week 8 in Automated Office-Measured Systolic Blood Pressure (100 mg QD, AHTs ≥3): −11.04 (10.45) mmHg | Mean (SD) Automated Office-Measured Diastolic Blood Pressure at Wk 8 (100 mg QD, Age 65-79 yr): 72.80 (7.89) mmHg | Mean (SD) Automated Office-Measured Systolic Blood Pressure at Wk 8 (100 mg QD, Age 65-79 yr): 133.73 (12.53) mmHg | Mean (SD) Change from Baseline at Week 8 in Automated Office-Measured Diastolic Blood Pressure (100 mg QD, Age 65-79 yr): −4.37 (7.01) mmHg | Mean (SD) Change from Baseline at Week 8 in Automated Office-Measured Systolic Blood Pressure (100 mg QD, Age 65-79 yr): −9.53 (11.49) mmHg | Mean (SD) Automated Office-Measured Diastolic Blood Pressure at Wk 8 (100 mg QD, Age <65 yr): 78.33 (9.69) mmHg | Mean (SD) Automated Office-Measured Systolic Blood Pressure at Wk 8 (100 mg QD, Age <65 yr): 129.33 (20.63) mmHg | Mean (SD) Change from Baseline at Week 8 in Automated Office-Measured Diastolic Blood Pressure (100 mg QD, Age <65 yr): −8.67 (10.16) mmHg | Mean (SD) Change from Baseline at Week 8 in Automated Office-Measured Systolic Blood Pressure (100 mg QD, Age <65 yr): −22.75 (14.75) mmHg
